Reference: patent US6492365B1, “Microsomal triglyceride transfer protein” (Bristol-Myers Squibb Company, priority 1992, dated 2002)
Structures can show the parent of a compound that is named as a salt.

Columns and labels:
bovine MTP [1] = target: T1, bovine MTP (Bos taurus, UniProt P55156); experiment: MTP-catalyzed transport of 14C-CE from donor SUV to acceptor SUV; assay type: biochemical
T1 construct: with about 50-200 ng purified MTP in the well of a 96-well plate; from tissue; host or cells: bovine liver
T1 sequence (P55156 12-887): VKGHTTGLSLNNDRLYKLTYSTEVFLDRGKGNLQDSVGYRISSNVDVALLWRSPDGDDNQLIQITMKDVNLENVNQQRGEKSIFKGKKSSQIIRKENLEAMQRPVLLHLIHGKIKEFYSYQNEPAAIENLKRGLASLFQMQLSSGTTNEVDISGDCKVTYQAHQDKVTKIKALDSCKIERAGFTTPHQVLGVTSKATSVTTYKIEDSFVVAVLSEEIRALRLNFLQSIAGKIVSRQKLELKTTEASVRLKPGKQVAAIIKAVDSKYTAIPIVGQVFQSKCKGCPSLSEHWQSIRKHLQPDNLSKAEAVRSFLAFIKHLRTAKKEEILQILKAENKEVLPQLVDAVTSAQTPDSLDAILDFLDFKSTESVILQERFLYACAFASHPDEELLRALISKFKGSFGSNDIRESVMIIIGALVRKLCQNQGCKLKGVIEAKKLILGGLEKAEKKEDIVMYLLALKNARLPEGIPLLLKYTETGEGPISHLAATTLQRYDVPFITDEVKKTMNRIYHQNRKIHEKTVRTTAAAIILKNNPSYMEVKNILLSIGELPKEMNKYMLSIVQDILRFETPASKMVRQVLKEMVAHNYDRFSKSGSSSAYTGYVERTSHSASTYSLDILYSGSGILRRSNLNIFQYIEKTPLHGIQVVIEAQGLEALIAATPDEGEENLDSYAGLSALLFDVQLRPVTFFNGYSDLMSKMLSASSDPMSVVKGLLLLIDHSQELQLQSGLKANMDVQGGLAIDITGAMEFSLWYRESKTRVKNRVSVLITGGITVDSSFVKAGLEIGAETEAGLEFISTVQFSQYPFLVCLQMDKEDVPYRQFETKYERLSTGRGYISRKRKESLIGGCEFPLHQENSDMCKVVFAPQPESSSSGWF
T1 sequence (P05307 21-510 partner): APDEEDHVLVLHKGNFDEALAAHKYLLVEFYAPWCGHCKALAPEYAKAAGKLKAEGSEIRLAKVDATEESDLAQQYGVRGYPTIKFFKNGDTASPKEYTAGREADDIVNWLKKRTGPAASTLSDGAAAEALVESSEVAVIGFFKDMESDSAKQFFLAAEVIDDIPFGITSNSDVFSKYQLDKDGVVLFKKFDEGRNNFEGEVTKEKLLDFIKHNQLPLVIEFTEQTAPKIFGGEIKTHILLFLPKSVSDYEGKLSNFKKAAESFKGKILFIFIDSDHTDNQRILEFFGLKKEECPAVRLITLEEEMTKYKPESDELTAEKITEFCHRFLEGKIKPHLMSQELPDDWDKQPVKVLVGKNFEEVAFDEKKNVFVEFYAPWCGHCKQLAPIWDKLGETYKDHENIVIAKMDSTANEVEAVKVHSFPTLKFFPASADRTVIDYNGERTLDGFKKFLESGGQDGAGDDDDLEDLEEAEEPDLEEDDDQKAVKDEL
Method: (§1) To measure the effect of compound A on bovine MTP-catalyzed transport of CE or PC between membranes, the lipid transfer assay which measures TG transfer between SUV was modified. The composition of the donor vesicles was the same, except 0.25 mol% ^14C-CE or ^14C-PC replaced the labeled TG. The composition of the acceptor vesicles were the same, except labeled PC and unlabeled TG were not included. Following precipitation of donor vesicles, the percentage of lipid transfer was calculated by comparing the ^14C-CE or -PC in the acceptor vesicles in the supernatant following a transfer reaction to the total ^14C-CE or -PC in the assay. The labeled lipid in the supernatant in the absence of MTP was subtracted from the labeled lipid in the presence MTP to calculate the MTP-catalyzed lipid transfer from donor SUV to acceptor SUV. The remainder of the assay was essentially as described previously.

bovine MTP [2] = target: T1, bovine MTP; experiment: MTP-catalyzed transport of 14C-PC from donor SUV to acceptor SUV; assay type: biochemical; conditions: at concentrations of inhibitor which decreased TG and CE transfer more than 80%
Method: as §1

decrease of CE transfer (bovine MTP [1]; at concentrations that inhibited approximately 40% of PC transfer): more than 80%
PC transfer inhibited (bovine MTP [2]): Approximately 40%
Compound: O=C1c2ccccc2CN1C1CCN(CCC(c2ccccc2)c2ccccc2)CC1 [compound A, 2-[1-(3,3-diphenylpropyl)-4-piperdinyl]-2,3-dihydro-3-oxo-1H-isoindole hydrochloride]
inhibition of CE transfer (bovine MTP [1]; result in words): comparable to its inhibition of TG transfer
